What was measured:
Assay in all cases: relative viability (nuclei count vs DMSO), 5 days (fraction); higher = more cells survive
201T = tested on: 201T
How it was run: (§1)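 Lung cancer cell lines in 1536-well plates got either a single drug or a fixed anchor-drug dose together with five library-drug doses (not always all listed) in √10 steps, by pin tool, on the day after seeding. Nuclei were counted after 5 days, and relative viability is the treated-to-vehicle ratio of nuclei counts. Values are medians of duplicate plates.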

EKVX = tested on: EKVX
How it was run: as §1

NCI-H2023 = tested on: NCI-H2023
How it was run: as §1

NCI-H727 = tested on: NCI-H727
How it was run: as §1

EMC-BAC-2 = tested on: EMC-BAC-2
How it was run: as §1

BEN = tested on: BEN
How it was run: as §1

NCI-H1651 = tested on: NCI-H1651
How it was run: as §1

LK-2 = tested on: LK-2
How it was run: as §1

COR-L 105 = tested on: COR-L 105
How it was run: as §1

HCC-15 = tested on: HCC-15
How it was run: as §1

NCI-H322M = tested on: NCI-H322M
How it was run: as §1

PC-3 [JPC-3] = tested on: PC-3 [JPC-3]
How it was run: as §1

NCI-H838 = tested on: NCI-H838
How it was run: as §1

HCC-44 = tested on: HCC-44
How it was run: as §1

NCI-H460 = tested on: NCI-H460
How it was run: as §1

CAL-12T = tested on: CAL-12T
How it was run: as §1

NCI-H520 = tested on: NCI-H520
How it was run: as §1

LU99A = tested on: LU99A
How it was run: as §1

## Cc1csc(=NC2CCCCC2)n1/N=C/c1ccc(O)c(O)c1O [MIM1] + CC1(C)CCC(c2ccc(Cl)cc2)=C(CN2CCN(c3ccc(C(=O)NS(=O)(=O)c4ccc(N[C@H](CCN5CCOCC5)CSc5ccccc5)c(S(=O)(=O)C(F)(F)F)c4)cc3)CC2)C1 [Navitoclax] (partner 0.5 µM)
201T; first compound 0.2 µM
  relative viability: 1.2
201T; first compound 0.6325 µM
  relative viability: 1.21
201T; first compound 2 µM
  relative viability: 1.24
201T; first compound 6.325 µM
  relative viability: 1.19
201T; first compound 20 µM
  relative viability: 1.26
EKVX; first compound 0.2 µM
  relative viability: 0.922
EKVX; first compound 0.6325 µM
  relative viability: 1.07
EKVX; first compound 2 µM
  relative viability: 0.965
EKVX; first compound 6.325 µM
  relative viability: 0.761
EKVX; first compound 20 µM
  relative viability: 0.293
NCI-H2023; first compound 0.2 µM
  relative viability: 0.992
NCI-H2023; first compound 0.6325 µM
  relative viability: 1.03
NCI-H2023; first compound 2 µM
  relative viability: 0.91
NCI-H2023; first compound 6.325 µM
  relative viability: 0.683
NCI-H2023; first compound 20 µM
  relative viability: 0.432
NCI-H727; first compound 0.2 µM
  relative viability: 0.441
NCI-H727; first compound 0.6325 µM
  relative viability: 0.493
NCI-H727; first compound 2 µM
  relative viability: 0.324
NCI-H727; first compound 6.325 µM
  relative viability: 0.346
NCI-H727; first compound 20 µM
  relative viability: 0.27
EMC-BAC-2; first compound 0.2 µM
  relative viability: 1.11
EMC-BAC-2; first compound 0.6325 µM
  relative viability: 1.13
EMC-BAC-2; first compound 2 µM
  relative viability: 1.27
EMC-BAC-2; first compound 6.325 µM
  relative viability: 1.05
EMC-BAC-2; first compound 20 µM
  relative viability: 0.274
BEN; first compound 0.2 µM
  relative viability: 0.0709
BEN; first compound 0.6325 µM
  relative viability: 0.0746
BEN; first compound 2 µM
  relative viability: 0.0631
BEN; first compound 6.325 µM
  relative viability: 0.0911
BEN; first compound 20 µM
  relative viability: 0.0543
NCI-H1651; first compound 0.2 µM
  relative viability: 1.09
NCI-H1651; first compound 0.6325 µM
  relative viability: 1.1
NCI-H1651; first compound 2 µM
  relative viability: 1.03
NCI-H1651; first compound 6.325 µM
  relative viability: 0.875
NCI-H1651; first compound 20 µM
  relative viability: 0.869
LK-2; first compound 0.2 µM
  relative viability: 0.924
LK-2; first compound 0.6325 µM
  relative viability: 0.847
LK-2; first compound 2 µM
  relative viability: 0.657
LK-2; first compound 6.325 µM
  relative viability: 1.09
LK-2; first compound 20 µM
  relative viability: 0.209
COR-L 105; first compound 0.2 µM
  relative viability: 0.78
COR-L 105; first compound 0.6325 µM
  relative viability: 0.8
COR-L 105; first compound 2 µM
  relative viability: 0.732
COR-L 105; first compound 6.325 µM
  relative viability: 0.628
COR-L 105; first compound 20 µM
  relative viability: 0.54
HCC-15; first compound 0.2 µM
  relative viability: 0.682
HCC-15; first compound 0.6325 µM
  relative viability: 0.693
HCC-15; first compound 2 µM
  relative viability: 0.689
HCC-15; first compound 6.325 µM
  relative viability: 0.42
HCC-15; first compound 20 µM
  relative viability: 0.382
NCI-H322M; first compound 0.2 µM
  relative viability: 1.13
NCI-H322M; first compound 0.6325 µM
  relative viability: 1.29
NCI-H322M; first compound 2 µM
  relative viability: 1.31
NCI-H322M; first compound 6.325 µM
  relative viability: 1.13
NCI-H322M; first compound 20 µM
  relative viability: 1.37
PC-3 [JPC-3]; first compound 0.2 µM
  relative viability: 0.821
PC-3 [JPC-3]; first compound 0.6325 µM
  relative viability: 0.682
PC-3 [JPC-3]; first compound 2 µM
  relative viability: 0.897
PC-3 [JPC-3]; first compound 6.325 µM
  relative viability: 0.696
PC-3 [JPC-3]; first compound 20 µM
  relative viability: 0.531
NCI-H838; first compound 0.2 µM
  relative viability: 1.12
NCI-H838; first compound 0.6325 µM
  relative viability: 1.3
NCI-H838; first compound 2 µM
  relative viability: 0.994
NCI-H838; first compound 6.325 µM
  relative viability: 0.902
NCI-H838; first compound 20 µM
  relative viability: 0.501
HCC-44; first compound 0.2 µM
  relative viability: 0.93
HCC-44; first compound 0.6325 µM
  relative viability: 1.01
HCC-44; first compound 2 µM
  relative viability: 0.74
HCC-44; first compound 6.325 µM
  relative viability: 0.612
HCC-44; first compound 20 µM
  relative viability: 0.277
NCI-H460; first compound 0.2 µM
  relative viability: 1.16
NCI-H460; first compound 0.6325 µM
  relative viability: 1.14
NCI-H460; first compound 2 µM
  relative viability: 0.772
NCI-H460; first compound 6.325 µM
  relative viability: 0.416
NCI-H460; first compound 20 µM
  relative viability: 0.0332
CAL-12T; first compound 0.2 µM
  relative viability: 1.13
CAL-12T; first compound 0.6325 µM
  relative viability: 1.36
CAL-12T; first compound 2 µM
  relative viability: 1.15
CAL-12T; first compound 6.325 µM
  relative viability: 0.731
CAL-12T; first compound 20 µM
  relative viability: 0.945
NCI-H520; first compound 0.2 µM
  relative viability: 1.08
NCI-H520; first compound 0.6325 µM
  relative viability: 1.06
NCI-H520; first compound 2 µM
  relative viability: 1.06
NCI-H520; first compound 6.325 µM
  relative viability: 0.832
NCI-H520; first compound 20 µM
  relative viability: 0.517
LU99A; first compound 0.2 µM
  relative viability: 0.931
LU99A; first compound 0.6325 µM
  relative viability: 0.817
LU99A; first compound 2 µM
  relative viability: 0.781
LU99A; first compound 6.325 µM
  relative viability: 0.836
LU99A; first compound 20 µM
  relative viability: 0.18
